Measurements as given in publication PMC3034713, “Targeting Vascular NADPH Oxidase 1 Blocks Tumor Angiogenesis through a PPARα Mediated Mechanism” (PLoS ONE, 2011).

What was measured:
PKC a, bI, bII, d = assay: Pharmacological profiling (Cerep), Table S1
MPO = MPO (Homo sapiens, UniProt P05164); assay: Pharmacological profiling (Cerep), Table S1
cNos = assay: Pharmacological profiling (Cerep), Table S1; format: biochemical
[1] = test system: Heart, Kidney, Liver and Lung of mice; conditions: mouse, in vivo
Method: Supplementary file pone.0014665.s009.tif: Figure S8 Non toxic effect GKT 136901 on mice organs. Heart (a), Kidney (b), Liver (c) and Lung (d) of mice treated orally with vehicle or with vehicle plus GKT136901 inhibitor at 40 mg/kg per day during 8 days, stained by Hematoxilin/Eosin. Scale bars represent 100 μm on the full picture and 20 μm on the zoom. Images were acquired with a 20x/0.8 numeric aperture and analyzed using Mirax (Carl Zeiss). (8.38 MB TIF) Click here for additional data file.

12-Lipoxygenase = 12-Lipoxygenase (Homo sapiens, UniProt P18054); assay: Pharmacological profiling (Cerep), Table S1
NOX1 = biological target: T1, NOX1 (Homo sapiens, UniProt Q9Y5S8); assay: NOX inhibition in cell free assay, membranes from cells overexpressing NOX1 (Amplex Red ROS); format: biochemical
T1 construct: expressed in transfected cells
T1 sequence (Q9Y5S8 1-564): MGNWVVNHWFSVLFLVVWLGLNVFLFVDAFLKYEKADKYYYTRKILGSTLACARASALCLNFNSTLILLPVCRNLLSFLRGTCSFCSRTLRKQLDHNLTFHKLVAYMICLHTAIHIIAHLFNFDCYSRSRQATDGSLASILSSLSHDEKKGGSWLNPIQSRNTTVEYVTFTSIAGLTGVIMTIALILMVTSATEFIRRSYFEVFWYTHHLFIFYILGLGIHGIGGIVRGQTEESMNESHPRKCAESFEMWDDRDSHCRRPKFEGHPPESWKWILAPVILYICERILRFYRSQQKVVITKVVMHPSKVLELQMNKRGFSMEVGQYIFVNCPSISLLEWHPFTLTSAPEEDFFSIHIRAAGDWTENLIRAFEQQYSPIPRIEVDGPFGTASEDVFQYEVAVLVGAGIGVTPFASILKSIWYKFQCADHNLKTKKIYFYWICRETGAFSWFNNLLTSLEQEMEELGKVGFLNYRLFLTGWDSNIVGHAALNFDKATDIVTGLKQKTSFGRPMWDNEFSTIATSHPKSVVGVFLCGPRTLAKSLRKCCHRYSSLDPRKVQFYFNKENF
T1 sequence (P13498 2-195 partner limits assumed): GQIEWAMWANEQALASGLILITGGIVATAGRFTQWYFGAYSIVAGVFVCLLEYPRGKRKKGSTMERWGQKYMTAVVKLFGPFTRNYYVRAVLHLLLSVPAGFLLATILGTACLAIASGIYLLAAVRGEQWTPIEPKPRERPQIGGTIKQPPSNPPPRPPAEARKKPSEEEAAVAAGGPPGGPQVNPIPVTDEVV
Method: (§1) Membranes from NOX2 expressing PMN cells or from cells overexpressing NOX1 or NOX4 were prepared as previously described. After resuspension in sonication buffer (11% sucrose, 120 mM NaCl, 1 mM EGTA in PBS, pH 7.4 for NOX4-expressing cells) or in relax buffer (10 mM Pipes, 3 mM NaCl, 3.5 mM MgCl2, 0.1 M KCl, pH 7.4), cells were broken by sonication and centrifuged (200 g, 10 min). The supernatant was loaded onto a 17/40% (w/v) discontinuous sucrose gradient and centrifuged (150,000 g for 30 min). Membrane fractions were collected and stored at −80°C. ROS production measurements of membranes expressing different NOX subunits was determined as previously described using the Amplex Red method (Invitrogen).

NOX4 = biological target: T2, NOX4 (Homo sapiens, UniProt Q9NPH5); assay: NOX inhibition in cell free assay, membranes from cells overexpressing NOX4 (Amplex Red ROS); format: biochemical; conditions: Figure S2
T2 construct: expressed in transfected cells
Method: as §1

xanthine oxidase = xanthine oxidase (Homo sapiens, UniProt P47989); assay: Xanthine oxidase inhibition, concentration-response; format: biochemical
iNoS = iNoS (Homo sapiens, UniProt P35228); assay: Pharmacological profiling (Cerep), Table S1
LLC1 = assay: ROS production by tumor cells (DHE substrate); format: cell-based; conditions: 10 μM, 1h
Method: (§2) Supplementary file pone.0014665.s008.tif: Figure S7 Effect of GKT 136901 on tumor cells. a. LLC1 and B16F0 cell proliferation was measured by EdU incorporation and propidium iodide staining of DNA content, 24h after incubation with 10 μM of GKT136901. b. LLC1 apoptosis was measured by AnnexinV/PI staining after 24h of incubation with 10 μM of GKT136901. c. ROS levels produced by LLC1 are inhibited by GKT136901. ROS production was quantified by DHE substrate 1h after incubation with 10 μM of the inhibitor. *** p<0.001 (student t-test). (6.11 MB TIF) Click here for additional data file.

LLC1 tumors = assay: Tumor growth assay, LLC1 injected subcutaneously; format: in vivo, mice; conditions: for tumor vascularization (PECAM-1), vehicle = 100%: 40 mg/kg/day oral for 8 days
Method: 5. 10^5 of LLC1 or B16F0 were injected subcutaneously on the back of mice. […] Frozen sections of tumors were stained with anti-PECAM-1 antibody (rat monoclonal, [74]).

LLC1 and B16F0 cells = assay: Tumor cell proliferation (EdU incorporation, propidium iodide); format: cell-based; conditions: 10 μM, 24h
Method: as §2

Sequence of MPO (P05164 49-745, species assumed): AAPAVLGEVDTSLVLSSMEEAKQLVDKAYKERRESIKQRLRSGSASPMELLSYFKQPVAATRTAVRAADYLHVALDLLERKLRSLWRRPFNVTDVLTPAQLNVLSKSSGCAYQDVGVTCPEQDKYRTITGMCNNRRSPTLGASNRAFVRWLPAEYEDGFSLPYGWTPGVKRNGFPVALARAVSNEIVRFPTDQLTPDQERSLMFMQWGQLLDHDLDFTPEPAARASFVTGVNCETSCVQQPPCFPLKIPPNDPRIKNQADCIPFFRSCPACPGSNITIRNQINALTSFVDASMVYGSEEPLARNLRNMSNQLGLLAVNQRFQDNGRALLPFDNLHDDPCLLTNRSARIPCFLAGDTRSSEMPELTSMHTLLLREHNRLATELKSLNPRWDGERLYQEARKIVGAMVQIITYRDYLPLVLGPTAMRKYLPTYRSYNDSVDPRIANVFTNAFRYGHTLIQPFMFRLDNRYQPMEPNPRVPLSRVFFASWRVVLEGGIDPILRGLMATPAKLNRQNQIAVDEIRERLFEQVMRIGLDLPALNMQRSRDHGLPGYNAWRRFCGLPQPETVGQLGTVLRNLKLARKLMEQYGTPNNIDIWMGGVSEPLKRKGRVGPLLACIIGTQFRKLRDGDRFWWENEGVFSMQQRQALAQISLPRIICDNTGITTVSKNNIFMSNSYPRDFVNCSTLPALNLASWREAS
Sequence of 12-Lipoxygenase (P18054 whole entry): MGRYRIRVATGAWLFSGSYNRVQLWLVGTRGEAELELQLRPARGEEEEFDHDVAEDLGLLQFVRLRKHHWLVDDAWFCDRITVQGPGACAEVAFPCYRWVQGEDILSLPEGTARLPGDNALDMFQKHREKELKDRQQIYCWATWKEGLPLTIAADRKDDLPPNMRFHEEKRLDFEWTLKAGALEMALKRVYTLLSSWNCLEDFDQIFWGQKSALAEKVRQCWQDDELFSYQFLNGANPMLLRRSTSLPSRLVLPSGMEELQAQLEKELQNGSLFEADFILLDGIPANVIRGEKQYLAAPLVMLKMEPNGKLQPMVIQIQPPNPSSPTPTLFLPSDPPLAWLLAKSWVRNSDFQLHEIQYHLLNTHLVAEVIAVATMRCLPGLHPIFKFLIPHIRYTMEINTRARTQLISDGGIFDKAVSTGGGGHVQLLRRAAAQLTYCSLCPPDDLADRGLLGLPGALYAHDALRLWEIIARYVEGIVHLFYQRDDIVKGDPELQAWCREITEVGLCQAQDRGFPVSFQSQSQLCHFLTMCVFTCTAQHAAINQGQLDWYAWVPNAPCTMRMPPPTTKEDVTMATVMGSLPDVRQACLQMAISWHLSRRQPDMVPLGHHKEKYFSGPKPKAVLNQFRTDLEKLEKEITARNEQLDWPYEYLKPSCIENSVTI
Sequence of xanthine oxidase (P47989 whole entry, species assumed): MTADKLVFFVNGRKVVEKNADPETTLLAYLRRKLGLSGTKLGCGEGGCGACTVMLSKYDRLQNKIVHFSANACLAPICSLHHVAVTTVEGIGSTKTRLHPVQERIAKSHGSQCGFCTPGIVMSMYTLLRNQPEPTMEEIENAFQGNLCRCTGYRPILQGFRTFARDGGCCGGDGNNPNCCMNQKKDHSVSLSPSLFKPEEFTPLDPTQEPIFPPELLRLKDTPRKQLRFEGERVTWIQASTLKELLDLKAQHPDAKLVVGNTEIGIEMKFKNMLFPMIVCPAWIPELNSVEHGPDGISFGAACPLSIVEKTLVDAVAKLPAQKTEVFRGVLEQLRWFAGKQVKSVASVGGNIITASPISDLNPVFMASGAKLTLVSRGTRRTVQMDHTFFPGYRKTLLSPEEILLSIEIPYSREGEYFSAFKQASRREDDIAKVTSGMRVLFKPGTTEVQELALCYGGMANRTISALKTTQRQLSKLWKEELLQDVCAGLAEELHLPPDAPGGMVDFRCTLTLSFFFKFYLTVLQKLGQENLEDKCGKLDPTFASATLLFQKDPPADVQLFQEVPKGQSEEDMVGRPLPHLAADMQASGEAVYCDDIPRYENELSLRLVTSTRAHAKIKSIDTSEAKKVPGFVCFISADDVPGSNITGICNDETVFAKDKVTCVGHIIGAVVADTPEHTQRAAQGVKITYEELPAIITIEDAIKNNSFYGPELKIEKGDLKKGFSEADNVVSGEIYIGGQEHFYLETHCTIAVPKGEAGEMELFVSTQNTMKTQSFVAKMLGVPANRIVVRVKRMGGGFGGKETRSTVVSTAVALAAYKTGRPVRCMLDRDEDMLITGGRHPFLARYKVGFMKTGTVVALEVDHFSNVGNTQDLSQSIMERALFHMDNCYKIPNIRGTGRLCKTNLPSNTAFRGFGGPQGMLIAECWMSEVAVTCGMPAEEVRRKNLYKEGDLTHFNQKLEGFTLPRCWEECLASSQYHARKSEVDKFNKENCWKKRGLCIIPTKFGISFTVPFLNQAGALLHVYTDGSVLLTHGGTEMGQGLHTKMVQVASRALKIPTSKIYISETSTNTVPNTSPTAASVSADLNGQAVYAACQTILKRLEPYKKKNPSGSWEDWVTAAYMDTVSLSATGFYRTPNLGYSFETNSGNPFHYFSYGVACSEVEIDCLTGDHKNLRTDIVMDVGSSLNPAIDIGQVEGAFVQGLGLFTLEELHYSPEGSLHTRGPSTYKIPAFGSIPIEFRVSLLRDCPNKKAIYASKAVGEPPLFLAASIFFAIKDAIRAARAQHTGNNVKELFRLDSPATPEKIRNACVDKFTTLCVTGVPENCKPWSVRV
T2 sequence (Q9NPH5 whole entry, species assumed, one chain of several): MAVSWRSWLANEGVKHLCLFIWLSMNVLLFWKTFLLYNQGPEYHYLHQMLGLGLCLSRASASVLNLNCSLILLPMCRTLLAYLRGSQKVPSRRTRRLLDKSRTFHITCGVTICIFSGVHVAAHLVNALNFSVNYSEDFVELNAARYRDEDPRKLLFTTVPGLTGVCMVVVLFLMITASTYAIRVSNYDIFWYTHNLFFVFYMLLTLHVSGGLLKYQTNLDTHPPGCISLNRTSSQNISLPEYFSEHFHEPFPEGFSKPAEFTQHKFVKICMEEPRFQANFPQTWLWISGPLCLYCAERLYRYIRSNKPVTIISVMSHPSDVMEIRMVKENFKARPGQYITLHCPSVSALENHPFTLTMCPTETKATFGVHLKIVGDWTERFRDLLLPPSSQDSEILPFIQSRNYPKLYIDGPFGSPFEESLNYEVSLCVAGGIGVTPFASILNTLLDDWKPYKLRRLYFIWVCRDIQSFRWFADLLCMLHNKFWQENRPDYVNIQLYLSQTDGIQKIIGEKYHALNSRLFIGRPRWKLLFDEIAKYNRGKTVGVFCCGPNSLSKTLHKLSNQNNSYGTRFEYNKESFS

Compound: Cc1c2c(=O)n(-c3ccccc3Cl)[nH]c2cc(=O)n1Cc1ccccn1 [GKT136901]
- % Inhibition at 10 µM (PKC a, bI, bII, d): 0%
- % Inhibition at 10 µM (MPO): 0%
- % Inhibition at 10 µM (cNos): 0%
- toxic effect on mice (organ histology) [1]: no toxic effect
- % Inhibition at 10 µM (12-Lipoxygenase): 2%
- extent of inhibition of oxidase activity of NOX1 (NOX1; Figure S2): completely inhibits
- Ki (NOX1; cell-free, membranes from NOX1 over-expressing cells): 160 ± 10 nM
- extent of inhibition of oxidase activity of NOX4 (NOX4): completely inhibits
- Ki (xanthine oxidase): > 100000 nM
- % Inhibition at 10 µM (iNoS): 0%
- ROS levels produced by LLC1 (LLC1): inhibited
- reduction of vascular area (PECAM-1) compared to vehicle (LLC1 tumors; LLC1, 40 mg/kg daily oral from one day after injection): 59% ±9.3
- tumor size smaller compared to vehicle-treated mice (LLC1 tumors; LLC1, 40 mg/kg daily oral from one day after injection, one week of treatment): 34% ±5.8
- tumor vascularization (PECAM-1), vehicle = 100% (LLC1 tumors; LLC1 in PPARα deficient mice): 129% ±23
- tumor vascularization (PECAM-1), vehicle = 100% (LLC1 tumors; LLC1 in WT mice): 65% ±13
- reduction of tumor vascularization (PECAM-1), therapeutic treatment (LLC1 tumors; established LLC1 tumors, start 8 days after implantation, day 12): 36% ±16
- delay of tumor progression (tumor volume), therapeutic treatment (LLC1 tumors; established LLC1 tumors, start 8 days after implantation, GKT136901 40 mg/kg per os, DC101 0.8 mg i.p. every 2 days): 35% ±5.7
- tumor cell proliferation in vitro (LLC1 and B16F0 cells): did not interfere
